BindingDB's records for doi:10.1016/j.bioorg.2014.05.003 (Comsats Institute of Information Technology, 2014)

Target: Alpha-glucosidase MAL12 (Saccharomyces cerevisiae (strain ATCC 204508 / S288c), UniProt P53341)
Experiment: Glucosidase assay
Settings: pH 6.8; 37 °C
Protocol: Reaction mixture (100 µL) contained 70 µL 50 mM Na2HPO4 buffer, pH 6.8, 10 µL test compound (0.5 mM), followed by the addition of 10 µL enzyme (0.0234 units). The mixture was pre-incubated for 10 min at 37 °C and pre-read at 400 nm. The reaction was initiated by the addition of 10 µL of 0.5 mM substrate (p-nitrophenyl glucopyranoside) and incubated at 37 °C for 30 min. The absorbance of p-nitrophenol was measured at 400 nm.

Alpha-glucosidase MAL12, sequence (P53341 whole entry): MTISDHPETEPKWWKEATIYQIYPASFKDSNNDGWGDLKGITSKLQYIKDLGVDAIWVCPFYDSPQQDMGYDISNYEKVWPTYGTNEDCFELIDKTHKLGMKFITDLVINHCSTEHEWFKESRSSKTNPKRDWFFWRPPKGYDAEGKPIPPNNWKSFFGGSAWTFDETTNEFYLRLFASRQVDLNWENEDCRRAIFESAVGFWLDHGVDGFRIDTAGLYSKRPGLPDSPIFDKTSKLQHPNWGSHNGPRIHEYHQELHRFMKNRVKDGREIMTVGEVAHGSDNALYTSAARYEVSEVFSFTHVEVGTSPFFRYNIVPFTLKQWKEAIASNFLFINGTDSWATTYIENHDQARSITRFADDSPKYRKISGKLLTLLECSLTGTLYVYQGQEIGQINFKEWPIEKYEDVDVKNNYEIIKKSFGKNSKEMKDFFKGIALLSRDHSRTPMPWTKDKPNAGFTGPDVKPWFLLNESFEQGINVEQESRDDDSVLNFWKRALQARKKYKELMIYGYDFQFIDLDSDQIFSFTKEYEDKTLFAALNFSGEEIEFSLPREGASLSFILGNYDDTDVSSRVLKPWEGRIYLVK

SMILES	IC50
CCOC(=O)C1C(C)=NC(=O)NC1c1ccccc1 (stereo unspecified) [Ethyl 6-methyl-2-oxo-4-phenyl-1,2,3,4-tetrahydropyrimidine-5-carboxylate (4a)]	143 µM
CCOC(=O)C1C(C)=NC(=O)NC1c1ccc(C)cc1 (stereo unspecified) [Ethyl 6-methyl-4-(4-methylphenyl)-2-oxo-1,2,3,4-tetrahydropyrimidine-5-carboxylate (4f)]	112 µM
CCOC(=O)C1C(C)=NC(=S)NC1c1ccc(C)cc1 (stereo unspecified) [Ethyl 6-methyl-4-(4-methylphenyl)-2-thioxo-1,2,3,4-tetrahydropyrimidine-5-carboxylate (4l)]	125 µM
CCOC(=O)C1C(C)=NC(=O)NC1c1ccc(O)c(OC)c1 (stereo unspecified) [Ethyl 4-(4-hydroxy-3-methoxyphenyl)-6-methyl-2-oxo-1,2,3,4-tetrahydropyrimidine-5-carboxylate (4e)]	305 µM
CCOC(=O)[C@H]1[C@@H]2NC(=O)NC1(C)Oc1ccccc12 [(+-)2,6-Methano-4-oxo-3,4,5,6-tetrahydro-2H-[1,3,5]benzoxadiazocines (4d)]	122 µM
CCOC(=O)C1C(C)=NC(=O)NC1c1ccc(Cl)cc1 (stereo unspecified) [Ethyl 4-(4-chlorophenyl)-6-methyl-2-oxo-1,2,3,4-tetrahydropyrimidine-5-carboxylate (4b)]	213 µM
